Data taken from the kinase profiling compilation of Christmann-Franck et al. (2016).
Where “and” joins values, the source holds several entries; their conditions need not be identical. Equal entries are not always repeated.

Tests used:
Assay in all cases: radiometric filter-binding kinase assay, Kinase HotSpot
Conditions in all cases: compound 0.5 µM; ATP 10 µM
PRKCA (human) = PRKCA (human) (UniProt P17252)
SRPK2 (human) = SRPK2 (human) (UniProt P78362)
PRKCB2 (human) = PRKCB2 (human) (UniProt P05771)
PHKG2 (human) = PHKG2 (human) (UniProt P15735)
AURKC (human) = AURKC (human) (UniProt Q9UQB9)
FRK (human) = FRK (human) (UniProt P42685)
SGK3 (human) = SGK3 (human) (UniProt Q96BR1)
MKNK2 (human) = MKNK2 (human) (UniProt Q9HBH9)
ITK (human) = ITK (human) (UniProt Q08881)
EPHA7 (human) = EPHA7 (human) (UniProt Q15375)
MATK (human) = MATK (human) (UniProt P42679)
[1] = tested on: MKNK1 (human), Q9BUB5 [T385D; 165-205 del]
YES1 (human) = YES1 (human) (UniProt P07947)
RPS6KA1 KD1 KD2 (human) = RPS6KA1 KD1 KD2 (human) (UniProt Q15418)
PAK1 (human) = PAK1 (human) (UniProt Q13153)
HIPK2 (human) = HIPK2 (human) (UniProt Q9H2X6)
PASK (human) = PASK (human) (UniProt Q96RG2)
NTRK2 (human) = NTRK2 (human) (UniProt Q16620)
RIPK2 (human) = RIPK2 (human) (UniProt O43353)
CAMK4 (human) = CAMK4 (human) (UniProt Q16566)
PRKACA (human) = PRKACA (human) (UniProt P17612)
INSRR (human) = INSRR (human) (UniProt P14616)
ABL2 (human) = ABL2 (human) (UniProt P42684)
LYN (human) = LYN (human) (UniProt P07948)
MST4 (human) = MST4 (human) (UniProt Q9P289)
PLK1 (human) = PLK1 (human) (UniProt P53350)
SRMS (human) = SRMS (human) (UniProt Q9H3Y6)
CSNK2A2 (human) = CSNK2A2 (human) (UniProt P19784)
MAP4K2 (human) = MAP4K2 (human) (UniProt Q12851)
CDK2 CCNA2 (human) = CDK2 CCNA2 (human) (UniProt P24941+P20248)
FGFR2 (human) = FGFR2 (human) (UniProt P21802)
PRKD2 (human) = PRKD2 (human) (UniProt Q9BZL6)
CSF1R (human) = CSF1R (human) (UniProt P07333)
CDK9 CCNT1 (human) = CDK9 CCNT1 (human) (UniProt P50750+O60563)
DDR2 (human) = DDR2 (human) (UniProt Q16832)
DAPK1 (human) = DAPK1 (human) (UniProt P53355)
EPHB3 (human) = EPHB3 (human) (UniProt P54753)
PRKG1 (human) = PRKG1 (human) (UniProt Q13976)
CAMK2B (human) = CAMK2B (human) (UniProt Q13554)
PBK (human) = PBK (human) (UniProt Q96KB5)
NEK11 (human) = NEK11 (human) (UniProt Q8NG66)
BMX (human) = BMX (human) (UniProt P51813)

INSRR (human), sequence (P14616 whole entry, looked up): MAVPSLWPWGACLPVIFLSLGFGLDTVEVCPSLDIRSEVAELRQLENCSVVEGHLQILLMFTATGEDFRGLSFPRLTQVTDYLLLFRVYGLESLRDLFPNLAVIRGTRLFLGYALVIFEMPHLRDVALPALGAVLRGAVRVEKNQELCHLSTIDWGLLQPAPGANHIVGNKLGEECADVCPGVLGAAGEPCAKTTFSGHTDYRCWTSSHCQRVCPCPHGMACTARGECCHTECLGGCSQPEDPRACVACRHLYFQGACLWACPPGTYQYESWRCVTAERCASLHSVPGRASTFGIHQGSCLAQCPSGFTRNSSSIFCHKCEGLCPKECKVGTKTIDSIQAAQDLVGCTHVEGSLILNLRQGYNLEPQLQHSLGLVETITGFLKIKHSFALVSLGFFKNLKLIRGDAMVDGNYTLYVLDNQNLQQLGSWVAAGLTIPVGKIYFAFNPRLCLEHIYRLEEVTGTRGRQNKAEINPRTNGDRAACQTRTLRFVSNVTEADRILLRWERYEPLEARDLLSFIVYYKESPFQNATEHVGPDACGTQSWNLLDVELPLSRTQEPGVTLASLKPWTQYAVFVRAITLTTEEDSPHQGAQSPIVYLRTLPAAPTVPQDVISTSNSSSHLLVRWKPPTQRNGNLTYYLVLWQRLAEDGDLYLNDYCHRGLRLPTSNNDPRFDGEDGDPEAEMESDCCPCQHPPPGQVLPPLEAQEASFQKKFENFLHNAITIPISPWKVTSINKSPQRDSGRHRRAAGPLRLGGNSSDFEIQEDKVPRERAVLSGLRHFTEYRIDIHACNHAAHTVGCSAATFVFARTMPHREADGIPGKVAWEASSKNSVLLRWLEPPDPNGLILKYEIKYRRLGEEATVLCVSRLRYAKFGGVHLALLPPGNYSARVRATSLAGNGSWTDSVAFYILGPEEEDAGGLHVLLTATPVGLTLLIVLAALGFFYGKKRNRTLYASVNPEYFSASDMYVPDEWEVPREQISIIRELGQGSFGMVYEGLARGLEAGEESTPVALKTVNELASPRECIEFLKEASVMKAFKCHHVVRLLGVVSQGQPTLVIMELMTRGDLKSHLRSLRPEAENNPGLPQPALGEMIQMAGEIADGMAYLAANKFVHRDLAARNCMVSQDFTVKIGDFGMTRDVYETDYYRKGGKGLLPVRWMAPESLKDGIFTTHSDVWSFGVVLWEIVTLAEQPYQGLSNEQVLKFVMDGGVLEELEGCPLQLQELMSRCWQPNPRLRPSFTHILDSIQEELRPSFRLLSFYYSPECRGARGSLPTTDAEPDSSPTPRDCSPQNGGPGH
NTRK2 (human), sequence (Q16620 whole entry, looked up): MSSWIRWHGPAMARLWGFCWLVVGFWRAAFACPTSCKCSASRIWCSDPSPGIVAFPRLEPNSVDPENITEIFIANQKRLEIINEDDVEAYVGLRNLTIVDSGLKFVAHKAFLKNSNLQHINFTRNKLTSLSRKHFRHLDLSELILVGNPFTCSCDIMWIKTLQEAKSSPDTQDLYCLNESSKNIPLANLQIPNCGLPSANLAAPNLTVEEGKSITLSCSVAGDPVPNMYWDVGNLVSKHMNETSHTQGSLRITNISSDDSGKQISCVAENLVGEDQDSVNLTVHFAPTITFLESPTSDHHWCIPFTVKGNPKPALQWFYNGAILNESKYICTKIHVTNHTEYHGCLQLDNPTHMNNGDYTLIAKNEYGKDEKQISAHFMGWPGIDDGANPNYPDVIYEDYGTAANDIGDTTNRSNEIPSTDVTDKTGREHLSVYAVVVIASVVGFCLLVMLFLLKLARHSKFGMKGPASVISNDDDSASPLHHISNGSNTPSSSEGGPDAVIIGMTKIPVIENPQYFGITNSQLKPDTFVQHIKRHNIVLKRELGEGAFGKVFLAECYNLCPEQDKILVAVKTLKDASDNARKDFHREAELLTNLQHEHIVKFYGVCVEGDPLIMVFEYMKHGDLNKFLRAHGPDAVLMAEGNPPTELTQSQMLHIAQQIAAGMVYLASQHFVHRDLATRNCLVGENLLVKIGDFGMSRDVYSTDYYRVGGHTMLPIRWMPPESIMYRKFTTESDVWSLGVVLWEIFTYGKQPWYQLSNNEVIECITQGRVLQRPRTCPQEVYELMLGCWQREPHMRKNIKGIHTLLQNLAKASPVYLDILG
DDR2 (human), sequence (Q16832 whole entry, looked up): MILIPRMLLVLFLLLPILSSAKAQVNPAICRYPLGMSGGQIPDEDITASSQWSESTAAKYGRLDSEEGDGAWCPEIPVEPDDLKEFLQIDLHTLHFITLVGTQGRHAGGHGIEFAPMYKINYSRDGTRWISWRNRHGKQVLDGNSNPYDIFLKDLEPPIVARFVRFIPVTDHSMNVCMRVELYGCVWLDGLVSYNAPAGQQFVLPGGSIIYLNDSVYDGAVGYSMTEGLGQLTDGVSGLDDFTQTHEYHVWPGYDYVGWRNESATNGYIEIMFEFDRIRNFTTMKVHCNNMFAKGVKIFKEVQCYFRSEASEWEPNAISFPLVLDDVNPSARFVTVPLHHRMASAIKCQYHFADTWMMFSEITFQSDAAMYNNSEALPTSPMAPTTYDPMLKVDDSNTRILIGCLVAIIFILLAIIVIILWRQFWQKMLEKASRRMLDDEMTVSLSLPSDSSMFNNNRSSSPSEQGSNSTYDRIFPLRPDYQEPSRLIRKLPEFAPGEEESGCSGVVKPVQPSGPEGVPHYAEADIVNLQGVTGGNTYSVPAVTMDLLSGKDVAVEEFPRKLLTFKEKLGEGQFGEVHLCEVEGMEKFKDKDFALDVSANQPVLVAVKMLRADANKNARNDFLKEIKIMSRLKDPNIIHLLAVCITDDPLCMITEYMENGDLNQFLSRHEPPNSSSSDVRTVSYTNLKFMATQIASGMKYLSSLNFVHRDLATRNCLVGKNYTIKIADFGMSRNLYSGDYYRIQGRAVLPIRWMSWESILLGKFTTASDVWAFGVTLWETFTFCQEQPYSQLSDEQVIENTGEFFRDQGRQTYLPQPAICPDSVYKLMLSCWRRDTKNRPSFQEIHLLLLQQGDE
LYN (human), sequence (P07948 whole entry, looked up): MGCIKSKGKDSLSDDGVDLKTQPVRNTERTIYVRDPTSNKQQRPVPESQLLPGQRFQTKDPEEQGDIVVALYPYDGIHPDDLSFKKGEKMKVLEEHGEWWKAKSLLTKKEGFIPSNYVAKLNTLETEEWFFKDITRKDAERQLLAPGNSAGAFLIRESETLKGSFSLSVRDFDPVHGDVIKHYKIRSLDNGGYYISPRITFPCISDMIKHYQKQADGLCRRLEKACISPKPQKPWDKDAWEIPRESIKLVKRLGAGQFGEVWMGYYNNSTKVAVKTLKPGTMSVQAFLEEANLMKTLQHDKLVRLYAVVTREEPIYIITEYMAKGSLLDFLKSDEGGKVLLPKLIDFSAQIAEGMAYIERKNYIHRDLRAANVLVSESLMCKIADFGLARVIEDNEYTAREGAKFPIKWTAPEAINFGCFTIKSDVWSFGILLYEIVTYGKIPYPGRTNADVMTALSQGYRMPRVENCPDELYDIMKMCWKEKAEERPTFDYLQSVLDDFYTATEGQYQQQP
ITK (human), sequence (Q08881 whole entry, looked up): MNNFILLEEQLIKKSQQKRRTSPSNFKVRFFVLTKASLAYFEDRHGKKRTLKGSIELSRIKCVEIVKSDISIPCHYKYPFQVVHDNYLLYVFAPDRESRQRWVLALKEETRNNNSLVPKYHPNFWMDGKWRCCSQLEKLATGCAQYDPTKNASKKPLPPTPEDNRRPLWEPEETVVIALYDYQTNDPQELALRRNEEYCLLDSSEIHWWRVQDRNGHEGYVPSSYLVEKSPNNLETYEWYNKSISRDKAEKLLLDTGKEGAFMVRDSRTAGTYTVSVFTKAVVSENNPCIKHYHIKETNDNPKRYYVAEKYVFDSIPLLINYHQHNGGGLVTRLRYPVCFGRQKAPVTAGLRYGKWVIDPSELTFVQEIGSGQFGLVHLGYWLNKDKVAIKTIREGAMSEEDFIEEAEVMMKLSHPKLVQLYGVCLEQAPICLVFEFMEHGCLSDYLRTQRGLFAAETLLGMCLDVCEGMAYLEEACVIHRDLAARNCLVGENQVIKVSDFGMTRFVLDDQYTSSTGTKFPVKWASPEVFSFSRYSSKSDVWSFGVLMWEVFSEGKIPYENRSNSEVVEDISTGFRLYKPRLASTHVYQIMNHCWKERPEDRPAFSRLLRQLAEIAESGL
SRPK2 (human), sequence (P78362 whole entry, looked up): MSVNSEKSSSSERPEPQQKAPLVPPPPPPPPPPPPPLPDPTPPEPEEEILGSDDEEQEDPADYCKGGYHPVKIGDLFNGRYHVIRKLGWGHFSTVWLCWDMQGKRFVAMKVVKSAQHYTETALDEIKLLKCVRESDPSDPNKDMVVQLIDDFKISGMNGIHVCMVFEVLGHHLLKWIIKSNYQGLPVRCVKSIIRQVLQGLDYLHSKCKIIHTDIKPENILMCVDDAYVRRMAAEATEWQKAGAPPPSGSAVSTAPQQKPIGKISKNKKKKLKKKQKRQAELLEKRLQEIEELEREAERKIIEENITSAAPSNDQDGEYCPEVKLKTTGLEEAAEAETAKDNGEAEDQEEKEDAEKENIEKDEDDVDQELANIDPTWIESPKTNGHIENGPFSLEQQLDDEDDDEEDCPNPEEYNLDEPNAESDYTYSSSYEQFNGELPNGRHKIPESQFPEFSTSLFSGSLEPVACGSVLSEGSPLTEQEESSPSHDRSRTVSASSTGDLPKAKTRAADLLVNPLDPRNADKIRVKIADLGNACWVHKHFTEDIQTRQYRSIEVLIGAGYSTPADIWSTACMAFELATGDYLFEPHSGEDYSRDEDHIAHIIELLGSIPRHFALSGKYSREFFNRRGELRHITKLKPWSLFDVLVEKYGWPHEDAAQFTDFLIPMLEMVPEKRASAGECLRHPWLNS

COc1cc(Nc2c(C#N)cnc3cc(OCCCN4CCN(C)CC4)c(OC)cc23)c(Cl)cc1Cl
residual activity (PRKCA (human)): 49.5% | residual activity (SRPK2 (human)): 101% | residual activity (PRKCB2 (human)): 88.4% | residual activity (PHKG2 (human)): 103% | residual activity (AURKC (human)): 82.1% | residual activity (FRK (human)): 29.2% | residual activity (SGK3 (human)): 94.4% | residual activity (MKNK2 (human)): 98.7% | residual activity (ITK (human)): 103% | residual activity (EPHA7 (human)): 77.2% | residual activity (MATK (human)): 140% | residual activity [1]: 96.9% | residual activity (YES1 (human)): 7.29% | residual activity (RPS6KA1 KD1 KD2 (human)): 80.4% | residual activity (PAK1 (human)): 11.7% | residual activity (HIPK2 (human)): 89% | residual activity (PASK (human)): 109% | residual activity (NTRK2 (human)): 69.2% | residual activity (RIPK2 (human)): 111% | residual activity (CAMK4 (human)): 90.7% | residual activity (PRKACA (human)): 73.8% | residual activity (INSRR (human)): 36.9% | residual activity (ABL2 (human)): 2.19% | residual activity (LYN (human)): 2.13% and 6% | residual activity (MST4 (human)): 5.9% | residual activity (PLK1 (human)): 93.8% | residual activity (SRMS (human)): 90.6% | residual activity (CSNK2A2 (human)): 108% | residual activity (MAP4K2 (human)): 3.16% | residual activity (CDK2 CCNA2 (human)): 91.1% | residual activity (FGFR2 (human)): 58.1% | residual activity (PRKD2 (human)): 35.5% | residual activity (CSF1R (human)): 43.1% | residual activity (CDK9 CCNT1 (human)): 87% | residual activity (DDR2 (human)): 105% | residual activity (DAPK1 (human)): 106% | residual activity (EPHB3 (human)): 49.4% | residual activity (PRKG1 (human)): 85.5% and 94.9% | residual activity (CAMK2B (human)): 86.2% | residual activity (PBK (human)): 104%

COc1ccc(Cl)cc1NC(=O)Nc1cc(C)nc2ccccc12
residual activity (PRKCA (human)): 132% | residual activity (SRPK2 (human)): 94.9% | residual activity (PRKCB2 (human)): 109% | residual activity (PHKG2 (human)): 98.6% | residual activity (AURKC (human)): 99.9% | residual activity (FRK (human)): 98.4% | residual activity (SGK3 (human)): 108% | residual activity (MKNK2 (human)): 90.3% | residual activity (ITK (human)): 96% | residual activity (EPHA7 (human)): 99.7% | residual activity (MATK (human)): 98.2% | residual activity (NEK11 (human)): 94.6% | residual activity [1]: 101% | residual activity (YES1 (human)): 90.1% | residual activity (RPS6KA1 KD1 KD2 (human)): 77.8% | residual activity (PAK1 (human)): 94.8% | residual activity (HIPK2 (human)): 101% | residual activity (PASK (human)): 97.6% | residual activity (NTRK2 (human)): 94.6% | residual activity (RIPK2 (human)): 82.7% | residual activity (CAMK4 (human)): 93.6% | residual activity (PRKACA (human)): 101% | residual activity (INSRR (human)): 100% | residual activity (ABL2 (human)): 91.2% | residual activity (LYN (human)): 111% and 99.2% | residual activity (MST4 (human)): 77.6% | residual activity (PLK1 (human)): 96.9% | residual activity (SRMS (human)): 97.6% | residual activity (CSNK2A2 (human)): 96% | residual activity (MAP4K2 (human)): 114% | residual activity (CDK2 CCNA2 (human)): 98.6% | residual activity (FGFR2 (human)): 96.9% | residual activity (BMX (human)): 101% | residual activity (PRKD2 (human)): 99.8% | residual activity (CSF1R (human)): 94.8% | residual activity (CDK9 CCNT1 (human)): 98.2% | residual activity (DDR2 (human)): 97.7% | residual activity (DAPK1 (human)): 93.3% | residual activity (PRKG1 (human)): 108% and 97.5% | residual activity (CAMK2B (human)): 103% | residual activity (PBK (human)): 98.5%

CS(=O)(=O)CCNCc1ccc(-c2ccc3ncnc(Nc4ccc(OCc5cccc(F)c5)c(Cl)c4)c3c2)o1
residual activity (PRKCA (human)): 83% | residual activity (SRPK2 (human)): 88% | residual activity (PRKCB2 (human)): 99.8% | residual activity (PHKG2 (human)): 99.5% | residual activity (AURKC (human)): 90.9% | residual activity (FRK (human)): 104% | residual activity (SGK3 (human)): 102% | residual activity (MKNK2 (human)): 97.3% | residual activity (ITK (human)): 98.3% | residual activity (EPHA7 (human)): 95.6% | residual activity (MATK (human)): 75.9% | residual activity (NEK11 (human)): 107% | residual activity [1]: 94.5% | residual activity (YES1 (human)): 84.7% | residual activity (RPS6KA1 KD1 KD2 (human)): 105% | residual activity (PAK1 (human)): 110% | residual activity (HIPK2 (human)): 104% | residual activity (PASK (human)): 101% | residual activity (NTRK2 (human)): 98.8% | residual activity (RIPK2 (human)): 110% | residual activity (CAMK4 (human)): 107% | residual activity (PRKACA (human)): 96% | residual activity (INSRR (human)): 104% | residual activity (ABL2 (human)): 97.3% | residual activity (LYN (human)): 103% and 104% | residual activity (MST4 (human)): 110% | residual activity (PLK1 (human)): 99% | residual activity (SRMS (human)): 97.9% | residual activity (CSNK2A2 (human)): 101% | residual activity (MAP4K2 (human)): 104% | residual activity (CDK2 CCNA2 (human)): 94.5% | residual activity (FGFR2 (human)): 96.4% | residual activity (BMX (human)): 105% | residual activity (PRKD2 (human)): 86.4% | residual activity (CSF1R (human)): 106% | residual activity (CDK9 CCNT1 (human)): 85.2% | residual activity (DDR2 (human)): 107% | residual activity (DAPK1 (human)): 107% | residual activity (PRKG1 (human)): 95.4% and 99.7% | residual activity (CAMK2B (human)): 93.8% | residual activity (PBK (human)): 105%

Fc1ccc(-c2nc3n(c2-c2ccncc2)CCS3)cc1
residual activity (PRKCA (human)): 113% | residual activity (PRKCB2 (human)): 87.2% | residual activity (PHKG2 (human)): 104% | residual activity (AURKC (human)): 102% | residual activity (FRK (human)): 104% | residual activity (SGK3 (human)): 95.8% | residual activity (MKNK2 (human)): 84.9% | residual activity (ITK (human)): 97.5% | residual activity (EPHA7 (human)): 76.3% | residual activity (MATK (human)): 89.4% | residual activity (NEK11 (human)): 71.4% | residual activity [1]: 102% | residual activity (YES1 (human)): 99.4% | residual activity (RPS6KA1 KD1 KD2 (human)): 100% | residual activity (PAK1 (human)): 96.1% | residual activity (HIPK2 (human)): 99.2% | residual activity (PASK (human)): 109% | residual activity (NTRK2 (human)): 103% | residual activity (RIPK2 (human)): 84.7% | residual activity (CAMK4 (human)): 99.8% | residual activity (INSRR (human)): 102% | residual activity (ABL2 (human)): 91% | residual activity (LYN (human)): 106% and 97.4% | residual activity (MST4 (human)): 109% | residual activity (PLK1 (human)): 101% | residual activity (SRMS (human)): 102% | residual activity (CSNK2A2 (human)): 105% | residual activity (MAP4K2 (human)): 109% | residual activity (CDK2 CCNA2 (human)): 101% | residual activity (FGFR2 (human)): 106% | residual activity (BMX (human)): 104% | residual activity (PRKD2 (human)): 94.7% | residual activity (CSF1R (human)): 103% | residual activity (CDK9 CCNT1 (human)): 94.9% | residual activity (DDR2 (human)): 94.9% | residual activity (DAPK1 (human)): 100% | residual activity (EPHB3 (human)): 96.1% | residual activity (PRKG1 (human)): 103% and 95.9% | residual activity (CAMK2B (human)): 90% | residual activity (PBK (human)): 100%

C[C@@H]1CCN(C(=O)CC#N)C[C@@H]1N(C)c1ncnc2[nH]ccc12
residual activity (PRKCA (human)): 78.7% | residual activity (SRPK2 (human)): 90.7% | residual activity (PRKCB2 (human)): 88.1% | residual activity (PHKG2 (human)): 98.6% | residual activity (AURKC (human)): 85.3% | residual activity (FRK (human)): 106% | residual activity (SGK3 (human)): 98.1% | residual activity (MKNK2 (human)): 97.4% | residual activity (ITK (human)): 99.1% | residual activity (EPHA7 (human)): 89% | residual activity (MATK (human)): 66.9% | residual activity (NEK11 (human)): 91.7% | residual activity [1]: 89.9% | residual activity (YES1 (human)): 87.1% | residual activity (RPS6KA1 KD1 KD2 (human)): 90.9% | residual activity (PAK1 (human)): 108% | residual activity (HIPK2 (human)): 96.9% | residual activity (PASK (human)): 105% | residual activity (NTRK2 (human)): 97.1% | residual activity (RIPK2 (human)): 113% | residual activity (CAMK4 (human)): 96.3% | residual activity (INSRR (human)): 97.5% | residual activity (ABL2 (human)): 90.5% | residual activity (LYN (human)): 96.3% and 98.6% | residual activity (MST4 (human)): 105% | residual activity (PLK1 (human)): 101% | residual activity (SRMS (human)): 95.8% | residual activity (CSNK2A2 (human)): 96.6% | residual activity (MAP4K2 (human)): 102% | residual activity (CDK2 CCNA2 (human)): 89.5% | residual activity (FGFR2 (human)): 91.7% | residual activity (BMX (human)): 111% | residual activity (CSF1R (human)): 101% | residual activity (CDK9 CCNT1 (human)): 100% | residual activity (DDR2 (human)): 104% | residual activity (DAPK1 (human)): 109% | residual activity (EPHB3 (human)): 54.9% | residual activity (PRKG1 (human)): 82% and 87.8% | residual activity (PBK (human)): 102%
